Assays:
NIH3T3 cell = assay: Inhibition of NIH3T3 cell proliferation (CellTiter-Glo); format: cell-based; details: NIH3T3, 72 hours, 0.5% FBS; for IC50: Mus musculus
Procedure: The inhibition effect of the compounds of the present invention on NIH3T3 cell proliferation was determined by the following in vitro test.
The inhibition effect of the compounds of the present invention on NIH3T3 cell proliferation was determined by the following experimental method:
On a 96-well white plate with transparent bottom (3903, Corning), 100 μL of NIH3T3 cell (GNM6, Cell Bank of Typical Culture Collection Committee of Chinese Academy of Sciences) was seeded in a DMEM medium containing 10% FBS (SH1-30243.01, GE) in each well. The seeding density is 2000 cells/well. The cells were incubated overnight at 37° C., in 5% CO2. After overnight incubation, each well was replaced with 90 μL of DMEM medium containing 0.5%0 FBS. 10 μl of a 3-fold gradient dilution of the compounds with DMEM medium containing 0.5% FBS was then added, and the plate was incubated for 72 hours in a cell incubator at 37° C., in 5% CO2. Finally, 50 μL of CellTiter-Glo (G7573, Promega) was added to each well. After incubation for 10 minutes at room temperature, the chemiluminescence signal values were measured with a Victor 3 microplate reader (PerkinElmer). The IC50 values of the compounds were calculated using Graphpad Prism software based on each concentration of the compound and the corresponding signal value thereof.

RIPK2 kinase = RIPK2 kinase (Homo sapiens (Human), UniProt O43353); assay: Inhibition of RIPK2 kinase activity (ADP-Glo kit); format: biochemical; details: ATP 50 μM, 27° C. 2.5 hours
Sequence of RIPK2 kinase (O43353 whole entry): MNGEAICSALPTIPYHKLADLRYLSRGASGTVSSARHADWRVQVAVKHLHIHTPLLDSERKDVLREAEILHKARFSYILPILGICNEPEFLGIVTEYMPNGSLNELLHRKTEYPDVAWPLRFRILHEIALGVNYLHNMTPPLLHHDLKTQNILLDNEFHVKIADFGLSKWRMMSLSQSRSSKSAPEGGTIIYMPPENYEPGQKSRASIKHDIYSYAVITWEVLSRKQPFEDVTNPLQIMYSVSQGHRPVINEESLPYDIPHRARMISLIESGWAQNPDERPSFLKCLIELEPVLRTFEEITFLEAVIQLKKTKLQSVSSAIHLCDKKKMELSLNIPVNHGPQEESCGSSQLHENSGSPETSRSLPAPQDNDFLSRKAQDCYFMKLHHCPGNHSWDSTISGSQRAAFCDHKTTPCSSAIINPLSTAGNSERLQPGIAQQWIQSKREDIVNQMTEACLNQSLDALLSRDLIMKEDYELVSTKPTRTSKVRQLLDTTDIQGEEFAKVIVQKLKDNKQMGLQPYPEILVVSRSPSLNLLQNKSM
Procedure: The inhibition of RIPK2 kinase activity in vitro was determined by the following method.
The inhibition effect of the compounds of the present invention on RIPK2 kinase activity was determined by the following experimental method:
(§1) RIPK2 kinase assay kit (V4084, Promega) was used to assay enzyme activity. 2 μl of RIPK2 enzyme solution (the final concentration of enzyme in the reaction system was 0.5 ng/μL) formulated with reaction buffer (40 mM Tris pH 7.5, 20 mM MgCl2, 0.1 mg/ml BSA), 1 μl of a 3-fold gradient dilution of Compound 1 dissolved in 5% DMSO, and 2 μl of a mixed solution of ATP and MBP substrate peptide (the final concentration of ATP was 50 μM, and the final concentration of substrate was 0.2 μg/μL) were added successively to a 384-well plate (4514, Corning). After reaction at 27° C. for 2.5 hours, 5 μl of ADP-Glo solution in the kit was added to each well, then the plate was placed at 27° C. for 40 minutes. 10 μl of kinase assay reagent was then added to each well, then the plate was placed at 27° C. for 30 minutes. The chemiluminescence signal values were measured with a Victor 3 (PerkinElmer) multi-function microplate reader. The IC50 values of the compounds for enzyme inhibition were calculated using Graphpad prism software based on each concentration of the compound and the corresponding signal value thereof.

p38α kinase = p38α kinase (Homo sapiens (Human), UniProt Q16539); assay: Inhibition of p38α kinase activity (ADP-Glo kit); format: biochemical; details: ATP 50 μM, 27° C. 2.5 hours
Sequence of p38α kinase (Q16539 whole entry): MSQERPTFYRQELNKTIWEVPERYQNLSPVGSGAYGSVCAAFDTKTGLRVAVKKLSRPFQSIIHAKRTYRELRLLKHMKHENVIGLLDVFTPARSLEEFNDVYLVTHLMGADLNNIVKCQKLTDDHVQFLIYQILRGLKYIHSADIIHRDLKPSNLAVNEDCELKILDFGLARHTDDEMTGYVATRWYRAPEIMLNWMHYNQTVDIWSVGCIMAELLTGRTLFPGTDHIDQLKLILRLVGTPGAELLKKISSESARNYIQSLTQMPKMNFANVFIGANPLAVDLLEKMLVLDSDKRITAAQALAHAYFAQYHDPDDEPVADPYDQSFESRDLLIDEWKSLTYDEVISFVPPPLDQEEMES
Procedure: The inhibition of p38α kinase activity in vitro was determined by the following method.
The inhibition effect of the compounds of the present invention on p38α kinase activity was determined by the following experimental method:
as §1, with “p38α kinase” for “RIPK2 kinase”, “kit (V9591,” for “kit (V4084,”, “of” for “of RIPK2”, “of the compounds” for “of Compound 1”, “and p38” for “and MBP”, “compounds on” for “compounds for”

[1] = Toxicity assay, repeated intragastrical administration to SD rats for 7 days; format: in vivo; details: 30 and 100 mg/kg qd
Procedure: Evaluation of the toxicity of TGFβ inhibitor Compound 1 repeatedly intragastrically administered to SD rats for 7 days.
Twenty six SPF grade SD rats (approximately 180˜200 g, 6-7 weeks old, half male and half female) were purchased from Shanghai Jiesijie Laboratory Animal Co., Ltd.
Feeding conditions: SPF grade, animals were housed in plastic transparent rat cages, and 2-3 rats per cage. Room temperature: 20-26° C., relative humidity: 40-70%. 12 hours light/12 hours dark were alternated. The rats had free access to pellet feed for rats. The rats had free access to high-temperature sterilized water via drinking bottle.
The animals were divided randomly into 5 groups, i.e. solvent control group, compound 1—30 mg/kg group, compound 1—100 mg/kg group, and the corresponding toxicokinetics groups. There were 6 rats in solvent control group, compound 1—30 mg/kg group and compound 1—100 mg/kg group, and there were 4 rats in each corresponding toxicokinetics groups, half male and half female.
The dose of the test compound in the 7-day toxicity assay in rats was 30 and 100 mg/kg (qd), respectively, and the administration was continued for 7 days. Administration route: intragastrical administration, administration dosage: 10 ml/kg, administration frequency and administration period: daily morning administration, continuous administration for 7 days.
The results of various indicators were entered into computer Excel and entered and processed by SPSS software package.
The clinical symptom, food intake and anatomical gross observation were not processed statistically, and only the observation data of the observation items in the protocol were listed. Indicators such as body weight, organ weight, and clinical examination were processed statistically using SPSS.

Row | Structure (SMILES) | IC50 (NIH3T3 cell) [nM] | Maximum inhibition rate (%) (NIH3T3 cell) | IC50 (RIPK2 kinase) [nM] | IC50 (p38α kinase) [nM] | Blood biochemical indicators ([1]; 7 days) | Coagulation function and urine indexes compared with the solvent control group ([1]; 7 days) | Food intake ([1]; 7 days) | Safety under the conditions of this assay ([1]; 7 days) | Clinical observation of the animals during the administration ([1]; 7 days, intragastrical) | Body weight and body weight growth rate compared with the solvent control group ([1]; 7 days, p>0.05) | Gross pathological anatomy (autopsy) ([1]; after the last administration)
1 | Cc1cccc(-c2nn(C3CCC3)cc2-c2ccnc(-c3ccc(S(C)(=O)=O)cc3)c2)n1 [Example 1, 4-(1-Cyclobutyl-3-(6-methylpyridin-2-yl)-1H-pyrazol-4-yl)-2-(4-(methylsulfonyl)phenyl)pyridine] | 88 | 105 | 1200 | 2200 | No toxicological changes | no obvious abnormalities | no obvious change | good safety | no obvious abnormality | no significant difference | no obvious abnormalities
2 | Cc1cccc(-c2nn(C3CC3)cc2-c2ccnc(-c3ccc(S(C)(=O)=O)cc3)c2)n1 [Example 2, 4-(1-Cyclopropyl-3-(6-methylpyridin-2-yl)-1H-pyrazol-4-yl)-2-(4-(methylsulfonyl)phenyl)pyridine] | 194 | 107 | – | 1000 | – | – | – | – | – | – | –
